Experimental data published in patent US12336982B2 (RODEO THERAPEUTICS CORPORATION, priority 2018, dated 2025).

What follows are molecules tested against T1, recombinant 15-PGDH (Homo sapiens, UniProt P15428). Conditions: recombinant human 15-PGDH, in vitro; read-out: PDGH Assay-IC50.
T1 sequence (P15428 1-266): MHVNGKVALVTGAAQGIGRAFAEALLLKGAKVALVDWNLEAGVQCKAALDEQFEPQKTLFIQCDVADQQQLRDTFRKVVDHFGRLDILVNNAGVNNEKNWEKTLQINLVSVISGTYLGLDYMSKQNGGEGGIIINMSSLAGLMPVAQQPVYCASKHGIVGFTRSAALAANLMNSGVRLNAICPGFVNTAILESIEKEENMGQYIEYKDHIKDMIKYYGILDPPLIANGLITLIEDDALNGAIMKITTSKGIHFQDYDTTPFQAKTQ
Format: biochemical
From the text: The Recombinant 15-PGDH is human unless otherwise specified.

First: CN(CCO)c1ncc(-c2cc(C(F)(F)F)c3c(N)c([S+]([O-])C4CCC4)sc3n2)cn1 (stereo not drawn) [Example 188]
Second: Nc1c([S+]([O-])C2CCC2)sc2nc(-c3cnc(N(CCO)CCO)nc3)cc(-c3ccccc3)c12 (stereo not drawn) [Example 197]
The IC50 of the first is higher: 2.5 to 10 nM for the first, under 2.5 nM for the second.

`Nc1c([S@+]([O-])C2CCC2)sc2nc(-c3cnc4ncnn4c3)cc(-c3ccccc3)c12` [Example 402] and `COCC[S+]([O-])c1sc2nc(-c3cnc4ncnn4c3)cc(-c3ccccc3)c2c1N` (stereo not drawn) [Example 399] cannot be ordered by IC50: under 2.5 nM for the first, under 2.5 nM for the second.

`COCC[S+]([O-])c1sc2nc(-c3ccc4c(=O)[nH]ccc4c3)cc(-c3ccnn3C)c2c1N` (stereo not drawn) [Example 317] and `COCC[S+]([O-])c1sc2nc(-c3cnc4c(c3)ncn4C)cc(C3CCC3)c2c1N` (stereo not drawn) [Example 376] cannot be ordered by IC50: under 2.5 nM for the first, under 2.5 nM for the second.
